Measured values taken from ChEMBL document CHEMBL3526109 (Drug Metab Dispos, 2011).
pIC50: −log10 of the molar value.

Columns and labels:
[1] = test system: Homo sapiens; assay: Drug uptake in human plasma treated with [14C]brivanib alaninate assessed as AUC (0 to 12 hrs) of total radio activity at 800 mg, po administered as single oral dose by HPLC analysis; format: ADME, organism-based; conditions: in vivo
[2] = test system: Plasma; assay: Drug level in human plasma assessed as compound formation treated with [14C]brivanib alaninate at 800 mg, po administered as single dose via gavage measured after 4 hrs by HPLC analysis; format: ADME, organism-based; conditions: in vivo
[3] = test system: Plasma; assay: Drug level in human plasma assessed as compound formation treated with [14C]brivanib alaninate at 800 mg, po administered as single dose via gavage measured after 8 hrs by HPLC analysis; format: ADME, organism-based; conditions: in vivo
[4] = test system: Plasma; assay: Drug level in human plasma assessed as compound formation treated with [14C]brivanib alaninate at 800 mg, po administered as single dose via gavage measured after 12 hrs by HPLC analysis; format: ADME, organism-based; conditions: in vivo
[5] = test system: Rattus norvegicus; assay: AUC (0 to 6 hrs) Sprague-Dawley rat plasma treated with [14C]brivanib alaninate at 100 mg/kg, po administered as single oral dose by HPLC analysis; format: ADME, organism-based; conditions: in vivo
[6] = test system: Cynomolgus monkey; assay: AUC (0 to 12 hrs) cynomolgus monkey plasma treated with [14C]brivanib alaninate at 10 mg/kg, po administered as single oral dose by HPLC analysis; format: ADME, organism-based, Macaca fascicularis; conditions: in vivo
[7] = test system: Homo sapiens; assay: AUC (0 to 12 hrs) human plasma treated with [14C]brivanib alaninate at 800 mg, po administered as single oral dose by HPLC analysis; format: ADME, organism-based; conditions: in vivo
[8] = Drug excretion in Sprague-Dawley rat urine treated with [14C]brivanib alaninate at 100 mg/kg, po administered as single dose via gavage by HPLC analysis; format: ADME, organism-based; conditions: in vivo
[9] = Drug excretion in Sprague-Dawley rat feces treated with [14C]brivanib alaninate at 100 mg/kg, po administered as single dose via gavage by HPLC analysis; format: ADME, organism-based; conditions: in vivo
[10] = Drug excretion in bile duct-cannulated rat bile treated with [14C]brivanib alaninate at 100 mg/kg, po administered as single dose via gavage by HPLC analysis; format: ADME, organism-based; conditions: in vivo
[11] = Drug excretion in cynomolgus monkey urine treated with [14C]brivanib alaninate at 10 mg/kg, po administered as single dose via gavage by HPLC analysis; format: ADME, organism-based, Macaca fascicularis; conditions: in vivo
[12] = Drug excretion in cynomolgus monkey feces treated with [14C]brivanib alaninate at 10 mg/kg, po administered as single dose via gavage by HPLC analysis; format: ADME, organism-based, Macaca fascicularis; conditions: in vivo
[13] = Drug excretion in bile duct-cannulated cynomolgus monkey bile treated with [14C]brivanib alaninate at 10 mg/kg, po administered as single dose via gavage by HPLC analysis; format: ADME, organism-based, Macaca fascicularis; conditions: in vivo
[14] = Drug excretion in human urine treated with [14C]brivanib alaninate at 800 mg, po administered as single dose […] by HPLC analysis; format: ADME, organism-based; conditions: in vivo
[15] = Drug excretion in human feces treated with [14C]brivanib alaninate at 800 mg, po administered as single dose […] by HPLC analysis; format: ADME, organism-based; conditions: in vivo
[16] = test system: Liver microsome; assay: Drug metabolism in human liver microsomes assessed as (R)-1-(4-(4-fluoro-2-(hydroxymethyl)-1H-indol-5-yloxy)-5-methylpyrrolo[1,2-f][1,2,4]triazin-6-yloxy)propan-2-ol formation by LC-MS/MS analysis in presence of NADPH; format: ADME
[17] = test system: Cynomolgus monkey; assay: Tmax in cynomolgus monkey plasma treated with [14C]brivanib alaninate at 10 mg/kg, po administered as single dose via gavage by LC-MS/MS analysis; format: ADME, organism-based, Macaca fascicularis; conditions: in vivo
[18] = test system: Cynomolgus monkey; assay: AUC (0 to t) in cynomolgus monkey plasma treated with [14C]brivanib alaninate at 10 mg/kg, po administered as single dose via gavage by LC-MS/MS analysis; format: ADME, organism-based, Macaca fascicularis; conditions: in vivo
[19] = test system: Homo sapiens; assay: Cmax in human plasma treated with [14C]brivanib alaninate at 800 mg, po administered as single dose […] by LC-MS/MS analysis; format: ADME, organism-based; conditions: in vivo
[20] = test system: Homo sapiens; assay: Tmax in human plasma treated with [14C]brivanib alaninate at 800 mg, po administered as single dose […] by LC-MS/MS analysis; format: ADME, organism-based; conditions: in vivo
[21] = test system: Homo sapiens; assay: AUC (0 to t) in human plasma treated with [14C]brivanib alaninate at 800 mg, po administered as single dose […] by LC-MS/MS analysis; format: ADME, organism-based; conditions: in vivo
[22] = test system: Plasma; assay: Drug level in Sprague-Dawley rat plasma assessed as compound formation treated with [14C]brivanib alaninate at 100 mg/kg, po administered as single dose via gavage measured after 1 hr by HPLC analysis; format: ADME, organism-based; conditions: in vivo
[23] = test system: Plasma; assay: Drug level in Sprague-Dawley rat plasma assessed as compound formation treated with [14C]brivanib alaninate at 100 mg/kg, po administered as single dose via gavage measured after 2 hrs by HPLC analysis; format: ADME, organism-based; conditions: in vivo
[24] = test system: Plasma; assay: Drug level in Sprague-Dawley rat plasma assessed as compound formation treated with [14C]brivanib alaninate at 100 mg/kg, po administered as single dose via gavage measured after 6 hrs by HPLC analysis; format: ADME, organism-based; conditions: in vivo
[25] = test system: Plasma; assay: Drug level in cynomolgus monkey plasma assessed as compound formation treated with [14C]brivanib alaninate at 10 mg/kg, po administered as single dose via gavage measured after 1 hr by HPLC analysis; format: ADME, organism-based, Macaca fascicularis; conditions: in vivo
[26] = test system: Plasma; assay: Drug level in cynomolgus monkey plasma assessed as compound formation treated with [14C]brivanib alaninate at 10 mg/kg, po administered as single dose via gavage measured after 2 hrs by HPLC analysis; format: ADME, organism-based, Macaca fascicularis; conditions: in vivo
[27] = test system: Plasma; assay: Drug level in cynomolgus monkey plasma assessed as compound formation treated with [14C]brivanib alaninate at 10 mg/kg, po administered as single dose via gavage measured after 4 hrs by HPLC analysis; format: ADME, organism-based, Macaca fascicularis; conditions: in vivo
[28] = test system: Plasma; assay: Drug level in cynomolgus monkey plasma assessed as compound formation treated with [14C]brivanib alaninate at 10 mg/kg, po administered as single dose via gavage measured after 6 hrs by HPLC analysis; format: ADME, organism-based, Macaca fascicularis; conditions: in vivo
[29] = test system: Plasma; assay: Drug level in cynomolgus monkey plasma assessed as compound formation treated with [14C]brivanib alaninate at 10 mg/kg, po administered as single dose via gavage measured after 12 hrs by HPLC analysis; format: ADME, organism-based, Macaca fascicularis; conditions: in vivo
[30] = test system: Plasma; assay: Drug level in human plasma assessed as compound formation treated with [14C]brivanib alaninate at 800 mg, po administered as single dose via gavage measured after 1 hr by HPLC analysis; format: ADME, organism-based; conditions: in vivo
[31] = test system: Plasma; assay: Drug level in human plasma assessed as compound formation treated with [14C]brivanib alaninate at 800 mg, po administered as single dose via gavage measured after 2 hrs by HPLC analysis; format: ADME, organism-based; conditions: in vivo
[32] = test system: Cynomolgus monkey; assay: Drug uptake in cynomolgus monkey plasma treated with [14C]brivanib alaninate assessed as AUC (0 to 12 hrs) of total radio activity at 10 mg/kg, po administered as single oral dose by HPLC analysis; format: ADME, organism-based, Macaca fascicularis; conditions: in vivo
[33] = test system: Rattus norvegicus; assay: Drug uptake in Sprague-Dawley rat plasma treated with [14C]brivanib alaninate assessed as AUC (0 to 6 hrs) of total radio activity at 100 mg/kg, po administered as single oral dose by HPLC analysis; format: ADME, organism-based; conditions: in vivo
[34] = test system: Rattus norvegicus; assay: Cmax in Sprague-Dawley rat plasma treated with [14C]brivanib alaninate at 100 mg/kg, po administered as single dose via gavage by LC-MS/MS analysis; format: ADME, organism-based; conditions: in vivo
[35] = test system: Rattus norvegicus; assay: Tmax in Sprague-Dawley rat plasma treated with [14C]brivanib alaninate at 100 mg/kg, po administered as single dose via gavage by LC-MS/MS analysis; format: ADME, organism-based; conditions: in vivo
[36] = test system: Rattus norvegicus; assay: AUC (0 to t) in Sprague-Dawley rat plasma treated with [14C]brivanib alaninate at 100 mg/kg, po administered as single dose via gavage by LC-MS/MS analysis; format: ADME, organism-based; conditions: in vivo
[37] = test system: Cynomolgus monkey; assay: Cmax in cynomolgus monkey plasma treated with [14C]brivanib alaninate at 10 mg/kg, po administered as single dose via gavage by LC-MS/MS analysis; format: ADME, organism-based, Macaca fascicularis; conditions: in vivo
[38] = Drug level in cynomolgus monkey urine treated with [14C]brivanib alaninate at 10 mg/kg, po administered as single dose via gavage by mass spectrometry; format: ADME, organism-based, Macaca fascicularis; conditions: in vivo
[39] = test system: Cynomolgus monkey; assay: AUC (0 to 4 hrs) cynomolgus monkey plasma treated with [14C]brivanib alaninate at 10 mg/kg, po administered as single oral dose by HPLC analysis; format: ADME, organism-based, Macaca fascicularis; conditions: in vivo
[40] = target: Vascular endothelial growth factor receptor 2 (Homo sapiens, UniProt P35968); assay: Inhibition of human recombinant VEGFR-2
[41] = target: Fibroblast growth factor receptor 1 (Homo sapiens, UniProt P11362); assay: Inhibition of human recombinant FGFR-1
[42] = test system: Cynomolgus monkey; assay: Drug uptake in cynomolgus monkey plasma treated with [14C]brivanib alaninate assessed as AUC (0 to 4 hrs) of total radio activity at 10 mg/kg, po administered as single oral dose by HPLC analysis; format: ADME, organism-based, Macaca fascicularis; conditions: in vivo

Vascular endothelial growth factor receptor 2, sequence (P35968 whole entry): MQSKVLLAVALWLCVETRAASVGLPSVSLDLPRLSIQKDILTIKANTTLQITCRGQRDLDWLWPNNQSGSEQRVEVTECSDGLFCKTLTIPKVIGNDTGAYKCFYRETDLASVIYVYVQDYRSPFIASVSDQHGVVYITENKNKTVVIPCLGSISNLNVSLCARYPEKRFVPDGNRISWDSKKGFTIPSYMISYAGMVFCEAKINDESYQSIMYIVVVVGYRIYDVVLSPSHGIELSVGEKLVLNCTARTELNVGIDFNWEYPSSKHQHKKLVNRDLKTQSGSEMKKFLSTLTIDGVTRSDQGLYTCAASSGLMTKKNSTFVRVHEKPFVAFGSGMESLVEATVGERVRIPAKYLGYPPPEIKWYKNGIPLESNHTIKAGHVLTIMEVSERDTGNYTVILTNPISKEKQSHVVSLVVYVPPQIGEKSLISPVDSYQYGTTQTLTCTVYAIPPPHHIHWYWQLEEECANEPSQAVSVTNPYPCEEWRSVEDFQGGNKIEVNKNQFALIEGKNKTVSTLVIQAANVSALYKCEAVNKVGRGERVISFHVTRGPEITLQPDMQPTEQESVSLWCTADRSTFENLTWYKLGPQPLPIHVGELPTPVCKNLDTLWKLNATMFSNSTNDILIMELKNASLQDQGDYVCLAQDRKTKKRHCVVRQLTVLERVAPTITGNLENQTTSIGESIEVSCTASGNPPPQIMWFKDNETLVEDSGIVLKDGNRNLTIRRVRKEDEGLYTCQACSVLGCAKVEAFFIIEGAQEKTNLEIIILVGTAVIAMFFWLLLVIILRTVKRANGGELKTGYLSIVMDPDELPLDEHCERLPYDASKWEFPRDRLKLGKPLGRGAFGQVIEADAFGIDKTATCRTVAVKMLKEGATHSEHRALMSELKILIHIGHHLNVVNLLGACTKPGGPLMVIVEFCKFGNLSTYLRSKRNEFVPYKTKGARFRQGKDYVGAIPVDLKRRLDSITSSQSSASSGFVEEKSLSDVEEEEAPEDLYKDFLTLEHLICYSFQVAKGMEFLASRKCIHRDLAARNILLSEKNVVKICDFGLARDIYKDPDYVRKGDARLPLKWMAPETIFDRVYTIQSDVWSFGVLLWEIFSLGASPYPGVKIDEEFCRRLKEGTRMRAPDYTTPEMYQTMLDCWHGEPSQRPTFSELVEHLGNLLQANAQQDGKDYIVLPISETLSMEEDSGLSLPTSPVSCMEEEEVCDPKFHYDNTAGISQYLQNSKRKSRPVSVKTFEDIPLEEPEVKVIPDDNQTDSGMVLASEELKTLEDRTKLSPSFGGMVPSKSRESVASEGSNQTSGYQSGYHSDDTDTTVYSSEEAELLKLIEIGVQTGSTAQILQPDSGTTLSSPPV
Fibroblast growth factor receptor 1, sequence (P11362 whole entry): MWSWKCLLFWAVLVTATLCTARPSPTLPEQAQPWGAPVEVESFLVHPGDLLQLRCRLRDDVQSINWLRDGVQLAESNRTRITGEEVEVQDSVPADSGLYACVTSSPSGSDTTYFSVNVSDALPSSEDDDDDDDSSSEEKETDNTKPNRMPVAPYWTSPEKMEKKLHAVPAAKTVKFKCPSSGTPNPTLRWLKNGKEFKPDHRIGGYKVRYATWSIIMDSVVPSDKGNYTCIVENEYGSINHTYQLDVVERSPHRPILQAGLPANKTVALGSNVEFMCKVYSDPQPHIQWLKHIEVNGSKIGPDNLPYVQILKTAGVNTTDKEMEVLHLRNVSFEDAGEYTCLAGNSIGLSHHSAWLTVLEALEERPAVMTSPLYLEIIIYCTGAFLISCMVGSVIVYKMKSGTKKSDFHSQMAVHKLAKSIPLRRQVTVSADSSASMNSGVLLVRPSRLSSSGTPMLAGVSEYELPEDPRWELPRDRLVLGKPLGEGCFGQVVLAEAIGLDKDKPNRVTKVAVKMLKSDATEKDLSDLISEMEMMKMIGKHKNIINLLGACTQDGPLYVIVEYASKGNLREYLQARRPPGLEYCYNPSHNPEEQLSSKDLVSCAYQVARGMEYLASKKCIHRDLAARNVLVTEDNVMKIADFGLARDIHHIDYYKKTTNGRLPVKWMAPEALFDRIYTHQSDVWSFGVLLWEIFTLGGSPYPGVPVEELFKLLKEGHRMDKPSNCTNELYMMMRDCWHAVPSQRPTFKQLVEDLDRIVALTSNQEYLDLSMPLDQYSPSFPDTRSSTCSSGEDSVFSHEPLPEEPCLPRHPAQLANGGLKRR

Row | AUC metabolite/AUC radiolabel [1] [%] | Compound recovery [2] [%] | Compound recovery [3] [%] | Compound recovery [4] [%] | AUC [5] [ugequiv/l.hr] | AUC [7] [ugequiv/l.hr] | Compound recovery [8] | Compound recovery [9] [%] | Compound recovery [10] | Compound recovery [12] [%] | Compound recovery [13] | Compound recovery [14] | Compound recovery [15] [%] | Compound recovery [22] [%] | Compound recovery [23] [%] | Compound recovery [24] [%] | Compound recovery [25] [%] | Compound recovery [26] [%] | Compound recovery [27] [%] | Compound recovery [28] | Compound | further results
1 | 46.1 | 57.1 | 46.7 | 38 | 23709.8 | 30257.7 | metabolite_not_detected | 1.8 | metabolite_not_detected | 6.5 | metabolite_not_detected | metabolite_not_detected | 7.5 | 22 | 15.8 | 14.3 | 70.7 | 62.7 | 44.2 | 60.8% | Cc1cc2c(F)c(Oc3ncnn4cc(OC[C@@H](C)O)c(C)c34)ccc2[nH]1 [BRIVANIB] | AUC [6]: 42587.2 ugequiv/l.hr; Compound recovery [11]: metabolite_not_detected; Compound recovery [16]: metabolite_detected; Tmax [17]: 2 h; AUCt [18]: 49000 ng·h/mL; Cmax [19]: 6100 ng/mL; Tmax [20]: 1 h; AUCt [21]: 45900 ng·h/mL; Compound recovery [29]: 71.9%; Compound recovery [30]: 72.4%; Compound recovery [31]: 56.9%; AUC metabolite/AUC radiolabel [32]: 61.4%; AUC metabolite/AUC radiolabel [33]: 17%; Cmax [34]: 6400 ng/mL; Tmax [35]: 1 h; AUCt [36]: 35500 ng·h/mL; Cmax [37]: 6200 ng/mL
2 | 5.5 | 3.6 | 9.8 | 10.8 | 1628.2 | 3611.4 | 0.8% | 3.5 | 2.1% | 35.2 | 15.2% | metabolite_not_detected | 26.2 | 0.5 | 1.3 | 1.5 | 1.9 | 1 | 1.3 | metabolite_not_detected | Cc1cc2c(F)c(Oc3ncnn4cc(OC[C@@H](C)OS(=O)(=O)O)c(C)c34)ccc2[nH]1 | Compound recovery [38]: metabolite_detected; AUC [39]: 755.8 ugequiv/l.hr; pIC50 [40]: 7.55; pIC50 [41]: 7.59; Compound recovery [29]: metabolite_not_detected; Compound recovery [30]: metabolite_not_detected; Compound recovery [31]: 2.3%; AUC metabolite/AUC radiolabel [42]: 1.1%; AUC metabolite/AUC radiolabel [33]: 1.2%
